Results on 2 compounds are retold here after article PMC9326216, “Treatment of Cardiovascular Dysfunction with PDE3-Inhibitors in Moderate and Severe Hypothermia—Effects on Cellular Elimination of Cyclic Adenosine Monophosphate and Cyclic Guanosine Monophosphate” (Frontiers in Physiology, 2022).

By IC50 is commonly meant the midpoint of a concentration-inhibition curve. What is called Ki is a measure of affinity in units of concentration, obtained from inhibition or displacement.

One data set addresses T1, PDE5 (Homo sapiens, UniProt O76074).
T1 construct: purchased Sigma-Aldrich, St. Louis, United States
In words: Phosphodiesterase assay: inhibition of cGMP hydrolysis by recombinant PDE5. In kind it is biochemical. The settings on record: for IC50: 5 µM cGMP, 30 min; for Ki: Cheng-Prusoff. The procedure: The study drugs were tested upon their ability to hinder cAMP and cGMP hydrolysis by inhibiting PDE3 and PDE5 respectively. Either 5 µM cAMP or cGMP (Sigma-Aldrich, St. Louis, MO, United States) were used as substrates for the enzymes. The reaction was initiated by adding PDE to the assay solution in designated Eppendorf tubes, containing fresh incubation buffer (10 mM Tris, 8.2 mM Propionic acid, 3 mM Magnesium acetate, 1.5 mM EGTA and 0.5 mg/ml BSA, 0.2 mM DTT) selected substrate (cAMP or cGMP) and inhibitor. The reaction was initiated by adding 0.016 units/µl incubate of PDE3 (Abcam, Cambridge, United Kingdom), or 0.022 units/µl incubate of PDE5 (Sigma-Aldrich, St. Louis, United States). Control samples were free of drug and were either with or without PDE. The incubation time was 30 min in the selected temperature. Reaction was stopped by adding 99.9% methanol to the solutions. Internal standards of cGMP-13C5, cAMP-13C5, AMP-13C5 (Toronto Research Chemicals Inc., Ontario, Canada) and GMP-15N5 (Sigma-Aldrich, St. Louis, MO, United States) were added to each sample, before MS analysis.
Liquid chromatography tandem mass spectrometry (LC-MS) was used to assess concentrations of the inhibitors for experiments performed to determine intracellular access of these drugs, as well as to quantify levels of cAMP/AMP and cGMP/GMP for the PDE3-and PDE5-inhibition plots. Internal standards were used, as described previously.
IC50 and Ki values were calculated for each of the drugs, both for their ability to inhibit cAMP- and cGMP- efflux, as well as PDE3 and PDE5 activity. IC50 values were derived according to [Chou (1976)], and Ki values according to [Cheng and Prusoff (1973)]. Inhibition curves were created accordingly, both with and without adjustment for normothermic control.

The test system of a further data set is ABCC5. In kind it is biochemical. The procedure:
Freshly collected EDTA blood from healthy donors (n = 35) was prepared at 0°C–4°C, starting by separating the erythrocytes from plasma by centrifugation at 2,300 g for approximately 15 min. […] Lysis followed thereafter, with ten volumes of 5 mM Tris-HCl, 0.5 mM EGTA, 4 mM KCl (pH 8.1) and washed by repeated centrifugation at 20,000 g for 20 min and resuspension in the same buffer. Vesiculation was initiated by adding 39 volumes of a […] buffer ([…] Tris-HCl, pH 8.2) to one volume of cell suspension and completed by forcing the solution five times through a 27-gauge syringe needle to promote homogenization of the membranes. […] The resulting IOVs, which still contained ABC-transporters in the membrane, enabled us to control the intracellular environment, in this case the surrounding medium, and collect the cyclic nucleotides within. […] Radioactive labeled (^3H)-cAMP or (^3H)-cGMP (Perkin Elmer, Boston, MA, United States) were added to the incubation solutions in the concentration 20 and 2 μM, respectively, depending on the transporter examined, together with the appointed study drug in concentrations up to 1 mM. […] Next step was to collect the IOVs, which was done by filtration through a nitrocellulose membrane (Bio-Rad Laboratories, Feldkirchen, Germany), and then drying it. The resulting collection of radioactivity upon the filter, was later quantified by using a Packard TopCount NXT (Packard, Downers Grove, IL, United states) after adding scintillation fluid (MicroScint-O, PerkinElmer, Groningen, Netherlands).
IC50 and Ki values were calculated for each of the drugs, both for their ability to inhibit cAMP- and cGMP- efflux, as well as PDE3 and PDE5 activity. […] Inhibition curves were created accordingly, both with and without adjustment for normothermic control.

A further data set relates to PDE3. The settings on record: ref Pathak et al., 2013; cited from earlier work.
Sequence of PDE3 (Q14432 whole entry): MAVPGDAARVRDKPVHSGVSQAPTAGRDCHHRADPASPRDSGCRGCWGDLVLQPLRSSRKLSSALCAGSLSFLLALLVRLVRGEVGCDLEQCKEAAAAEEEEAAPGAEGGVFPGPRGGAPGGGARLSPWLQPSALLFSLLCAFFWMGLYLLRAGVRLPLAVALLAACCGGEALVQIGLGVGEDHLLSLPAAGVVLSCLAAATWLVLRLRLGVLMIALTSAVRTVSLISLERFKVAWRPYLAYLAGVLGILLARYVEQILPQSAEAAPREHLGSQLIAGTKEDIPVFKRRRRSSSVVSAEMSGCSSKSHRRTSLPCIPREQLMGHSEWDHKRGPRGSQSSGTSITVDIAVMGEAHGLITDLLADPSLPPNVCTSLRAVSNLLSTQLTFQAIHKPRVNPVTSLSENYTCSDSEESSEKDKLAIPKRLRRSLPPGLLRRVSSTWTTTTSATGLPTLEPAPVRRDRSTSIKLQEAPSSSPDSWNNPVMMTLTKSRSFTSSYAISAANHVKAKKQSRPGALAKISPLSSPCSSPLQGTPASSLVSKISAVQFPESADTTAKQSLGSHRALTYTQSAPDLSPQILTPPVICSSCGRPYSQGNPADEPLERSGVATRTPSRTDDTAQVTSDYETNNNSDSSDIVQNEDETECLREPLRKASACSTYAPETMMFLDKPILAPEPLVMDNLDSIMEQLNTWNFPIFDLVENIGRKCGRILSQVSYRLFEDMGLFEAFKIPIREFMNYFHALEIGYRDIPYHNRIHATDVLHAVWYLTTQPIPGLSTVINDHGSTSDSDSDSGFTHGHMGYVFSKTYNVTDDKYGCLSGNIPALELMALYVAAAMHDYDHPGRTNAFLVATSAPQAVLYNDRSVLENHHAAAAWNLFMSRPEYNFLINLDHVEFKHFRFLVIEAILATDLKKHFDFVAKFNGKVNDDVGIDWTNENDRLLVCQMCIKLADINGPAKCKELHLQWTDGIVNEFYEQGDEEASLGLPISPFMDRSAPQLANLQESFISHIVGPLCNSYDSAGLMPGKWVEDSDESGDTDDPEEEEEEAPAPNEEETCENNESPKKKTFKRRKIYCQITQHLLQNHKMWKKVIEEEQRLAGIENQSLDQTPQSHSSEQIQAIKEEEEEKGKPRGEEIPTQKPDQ

Where two headings read alike, the source gives them in different places.

As to `Nc1cc(-c2ccncc2)c[nH]c1=O` [Amrinone], the IC50 at PDE5 (20°C) is 105 ± 8.04 µM; on PDE5 (24°C), 99.1 ± 4.2 µM; on PDE5 (28°C), 95 ± 7.29 µM; on PDE5 (32°C), 84.5 ± 5.94 µM; on PDE5 (34°C), 91.9 ± 3.65 µM; at PDE5 (37°C), 110 ± 12.8 µM. For the same compound, the Ki on PDE5 (20°C) is 26.7 ± 2.04 µM; on PDE5 (24°C) it was 25.1 ± 1.07 µM; on PDE5 (28°C), 24.1 ± 1.85 µM; at PDE5 (32°C) it was 21.5 ± 1.51 µM; on PDE5 (34°C), 23.3 ± 0.93 µM; at PDE5 (37°C), 27.8 ± 3.25 µM.
Take `C[C@@H]1CC(=O)NN=C1c1ccc(NN=C(C#N)C#N)cc1` [Levosimendan]: the “Drug selectivity (IC50)/(IC50): (cGMP-efflux)/(PDE5) inhibition” value with ABCC5 (20°C) was 0.045; in the data set on ABCC5 (24°C), 0.124; in the data set with ABCC5 (28°C), 0.065; in the data set with ABCC5 (32°C), 0.081; in the data set on ABCC5 (34°C) it was 0.093; in the data set on ABCC5 (37°C), 0.184. For the same compound, the “Drug selectivity (IC50)/(IC50): (cGMP-efflux)/(cAMP-efflux) inhibition” value with ABCC5 (28°C) is 0.44; in the data set on ABCC5 (32°C), 0.80; in the data set on ABCC5 (34°C) it was 1.09; in the data set on ABCC5 (37°C) it was 3.03. In addition, the “Concentration at which it acts as a PDE3 inhibitor” value in the data set with PDE3 was more than 0.3 µM. Further, the IC50 on PDE5 (20°C) is 157 ± 27.5 µM; at PDE5 (24°C) it was 148 ± 26.1 µM; on PDE5 (28°C), 183 ± 23 µM; on PDE5 (32°C), 162 ± 22.5 µM; at PDE5 (34°C), 150 ± 13.5 µM; on PDE5 (37°C), 155 ± 4.74 µM. The Ki on PDE5 (20°C) came to 39.9 ± 6.97 µM; at PDE5 (24°C), 37.6 ± 6.63 µM; at PDE5 (28°C) it was 46.4 ± 5.85 µM; on PDE5 (32°C), 41.2 ± 5.71 µM; at PDE5 (34°C), 38 ± 3.41 µM; on PDE5 (37°C) it was 39.2 ± 1.2 µM.
